Assay: xn = mol fraction of the nth substance listed

Cc1cccc(C)c1 + O=C1CCCO1
viscosity [mPa·s], 101.33 kPa
Conditions | x2 = 0.1012 | x2 = 0.214 | x2 = 0.3091 | x2 = 0.4022 | x2 = 0.5343 | x2 = 0.5955 | x2 = 0.7101 | x2 = 0.8371 | x2 = 0.9027
293.15 K | 0.69 | 0.777 | 0.859 | 0.948 | 1.093 | 1.169 | 1.332 | 1.544 | 1.671
298.15 K | 0.648 | 0.725 | 0.798 | 0.88 | 1.016 | 1.088 | 1.235 | 1.437 | 1.552
303.15 K | 0.61 | 0.679 | 0.752 | 0.829 | 0.951 | 1.013 | 1.147 | 1.325 | 1.431
308.15 K | 0.573 | 0.636 | 0.692 | 0.761 | 0.875 | 0.936 | 1.06 | 1.226 | 1.323

CC(O)CC(C)(C)O (stereo unspecified) + O=Cc1ccccc1
viscosity [mPa·s], 101 kPa
Conditions | x1 = 0.0921 | x1 = 0.1829 | x1 = 0.2762 | x1 = 0.3752 | x1 = 0.4712 | x1 = 0.5787 | x1 = 0.6736 | x1 = 0.775 | x1 = 0.8828
308.15 K | 1.337 | 1.484 | 1.717 | 2.062 | 2.679 | 3.484 | 4.864 | 7.155 | 10.92
318.15 K | 1.004 | 1.149 | 1.368 | 1.7 | 2.157 | 2.801 | 3.804 | 5.903 | 9.45

CC(O)CC(C)(C)O (stereo unspecified) + O=[N+]([O-])c1ccccc1
viscosity [mPa·s], 101 kPa
Conditions | x1 = 0.0918 | x1 = 0.1905 | x1 = 0.2926 | x1 = 0.3853 | x1 = 0.4886 | x1 = 0.5862 | x1 = 0.6895 | x1 = 0.7727 | x1 = 0.8991
308.15 K | 1.724 | 1.903 | 2.194 | 2.574 | 3.288 | 4.074 | 5.512 | 7.423 | 12.38
318.15 K | 1.332 | 1.478 | 1.703 | 2.012 | 2.606 | 3.222 | 4.571 | 6.127 | 10.82

OC1COCOC1 + OCC(O)CO
viscosity [mPa·s], 101 kPa
Conditions | x1 = 0.0998 | x1 = 0.2002 | x1 = 0.3 | x1 = 0.3996 | x1 = 0.5003 | x1 = 0.5984 | x1 = 0.7011 | x1 = 0.8002 | x1 = 0.9
298.15 K | 832.9 | 733.8 | 627.8 | 520 | 421.6 | 329.6 | 242.5 | 168.5 | 92.07
308.15 K | 378.7 | 330.3 | 278.4 | 227 | 181 | 134.8 | 99.8 | 67.79 | 40.63
318.15 K | 190 | 163.4 | 139 | 110.6 | 85.95 | 62.08 | 44.85 | 32.54 | 20.88

O=S1(=O)CCCC1 + OCCO
303.15 K, 101 kPa
Conditions | viscosity [mPa·s]
x1 = 0.0503 | 11.92
x1 = 0.0993 | 10.75
x1 = 0.2006 | 8.926
x1 = 0.2984 | 7.669
x1 = 0.393 | 6.857
x1 = 0.4553 | 6.555
x1 = 0.5015 | 6.443
x1 = 0.5484 | 6.443
x1 = 0.6038 | 6.548
x1 = 0.7048 | 7.013
x1 = 0.8065 | 7.683
x1 = 0.9034 | 8.532
x1 = 0.9426 | 9.018

OC1COCOC1 + OCCO
viscosity [mPa·s], 101 kPa
Conditions | x1 = 0.1002 | x1 = 0.2002 | x1 = 0.3 | x1 = 0.4 | x1 = 0.5004 | x1 = 0.5997 | x1 = 0.7 | x1 = 0.8001 | x1 = 0.8999
298.15 K | 16.97 | 16.11 | 14.94 | 13.85 | 12.88 | 12.74 | 12.81 | 12.79 | 12.89
308.15 K | 11.6 | 10.98 | 10.23 | 9.473 | 8.583 | 8.457 | 8.572 | 8.812 | 8.878
318.15 K | 8.193 | 7.647 | 7.214 | 6.665 | 6.111 | 5.995 | 5.915 | 6.167 | 6.474

O=S1(=O)CCCC1 + OCCOCCO
303.15 K, 101 kPa
Conditions | viscosity [mPa·s]
x1 = 0.0517 | 20.1
x1 = 0.0984 | 18.62
x1 = 0.206 | 15.85
x1 = 0.2958 | 13.99
x1 = 0.3988 | 12.28
x1 = 0.4469 | 11.69
x1 = 0.4997 | 11.11
x1 = 0.5346 | 10.81
x1 = 0.603 | 10.31
x1 = 0.7047 | 9.829
x1 = 0.7896 | 9.536
x1 = 0.8987 | 9.51
x1 = 0.9348 | 9.614

O=S1(=O)CCCC1 + OCCOCCOCCO
303.15 K, 101 kPa
Conditions | viscosity [mPa·s]
x1 = 0.0435 | 27.75
x1 = 0.0985 | 25.88
x1 = 0.2083 | 22.54
x1 = 0.2999 | 20.02
x1 = 0.3966 | 17.63
x1 = 0.4473 | 16.49
x1 = 0.4985 | 15.45
x1 = 0.5498 | 14.47
x1 = 0.5855 | 13.85
x1 = 0.6913 | 12.24
x1 = 0.8065 | 10.9
x1 = 0.8984 | 10.18
x1 = 0.9458 | 10.08

Cc1ccc(O)cc1 + Oc1ccccc1
298.15 K, 101 kPa
Conditions | viscosity [mPa·s]
x2 = 0.1598 | 13.27
x2 = 0.3191 | 12.18
x2 = 0.3851 | 11.75
x2 = 0.5218 | 10.99
x2 = 0.6385 | 10.42
x2 = 0.7587 | 9.835
x2 = 0.8783 | 9.463

O=S(=O)(Cl)Cl + [Cl-].[Cl-].[Cl-].[Cl-].[Sn+4]
298.15 K, 101 kPa
Conditions | viscosity [mPa·s]
x1 = 0.268 | 0.7739
x1 = 0.563 | 0.7396
x1 = 0.795 | 0.7144

CCC(C)O (stereo unspecified) + c1ccccc1
303 K, 101.3 kPa
Conditions | viscosity [mPa·s]
x2 = 0.1032 | 1.95
x2 = 0.2077 | 1.52
x2 = 0.3084 | 1.204
x2 = 0.4086 | 0.9692
x2 = 0.511 | 0.8012
x2 = 0.5989 | 0.6995
x2 = 0.7027 | 0.6211
x2 = 0.7981 | 0.5854
x2 = 0.8973 | 0.5709

Cc1cccc(C)c1 + c1ccccc1
viscosity [mPa·s], 101 kPa
Conditions | x1 = 0.0977 | x1 = 0.2098 | x1 = 0.2979 | x1 = 0.4028 | x1 = 0.5018 | x1 = 0.5981 | x1 = 0.7046 | x1 = 0.8007 | x1 = 0.898
303 K | 0.5478 | 0.5424 | 0.5393 | 0.5373 | 0.5342 | 0.5374 | 0.536 | 0.5395 | 0.5417
313 K | 0.4793 | 0.4781 | 0.4769 | 0.4767 | 0.4789 | 0.4796 | 0.4818 | 0.4843 | 0.4875
323 K | 0.4302 | 0.4308 | 0.4285 | 0.4291 | 0.4307 | 0.4342 | 0.4361 | 0.4397 | 0.443

O=S(=O)(Cl)Cl + c1ccccc1
298.15 K, 101 kPa
Conditions | viscosity [mPa·s]
x1 = 0.176 | 0.6172
x1 = 0.43 | 0.6463
x1 = 0.699 | 0.6673
x1 = 0.734 | 0.6691
x1 = 0.845 | 0.6757

From the CheMixHub viscosity set
